The nature of series [1]: Partition coefficient; Kp = concentration of test compound in n-octanol/concentration of the test compound in phosphate buffer (pH 7.4). It is filed as physicochemical.
The species entered for a further series is Cavia porcellus. As to the kind of experiment: Calcium channel antagonist activity against carbachol-induced contractile response in guinea pig ileal longitudinal smooth muscle. It is filed as functional.
Series [2] concerns Mus musculus. As to the kind of experiment: Anticonvulsant activity in the subcutaneous metrazole (scMet) screen test expressed as the number of animals protected to the number of animals tested; scMet at 100 mg/kg after 0.5 hrs; (1/1). It is filed as functional.
Series [3] relates to Mus musculus. As to the kind of experiment: Anticonvulsant activity in the subcutaneous metrazole (scMet) screen test expressed as the number of animals protected to the number of animals tested; scMet at 100 mg/kg after 4 hrs; (0/1). It is filed as functional.
For series [4], the system named is Mus musculus. In words: Anticonvulsant activity in the maximal electroshock (MES) screen test expressed as the number of animals protected to the number of animals tested; MES at 100 mg/kg after 0.5 hrs; (2/2). It is filed as functional. Background: The maximal electroshock test induces tonic seizures with an electrical stimulus.
For series [5], the system named is Mus musculus. As to the kind of experiment: Anticonvulsant activity in the subcutaneous metrazole (scMet) screen test expressed as the number of animals protected the number of animals tested; scMet at 100 mg/kg after 0.5 hrs; (0/1). Format: functional.
Series [6] concerns Mus musculus. As to the kind of experiment: Anticonvulsant activity in the subcutaneous metrazole (scMet) screen test expressed as the number of animals protected the number of animals tested; scMet at 100 mg/kg after 4 hrs; (0/1). Format: functional.
Series [7] relates to Mus musculus. As to the kind of experiment: Anticonvulsant activity in the subcutaneous metrazole (scMet) screen test expressed as the number of animals protected the number of animals tested; scMet at 300 mg/kg after 0.5 hrs; (0/1). Format: functional.
Series [8] deals with Mus musculus. As to the kind of experiment: Anticonvulsant activity in the subcutaneous metrazole (scMet) screen test expressed as the number of animals protected the number of animals tested; scMet at 300 mg/kg after 4 hrs; (0/1). Format: functional.
For series [9], the system named is Mus musculus. As to the kind of experiment: Anticonvulsant activity in the maximal electroshock (MES) screen test expressed as the number of animals protected the number of animals tested; MES at 100 mg/kg after 0.5 hrs; (0/3). Format: functional.
The test system of series [10] is Mus musculus. As to the kind of experiment: Anticonvulsant activity in the maximal electroshock (MES) screen test expressed as the number of animals protected the number of animals tested; MES at 100 mg/kg after 4 hrs; (1/3). It is filed as functional.
Series [11] relates to Mus musculus. In words: Anticonvulsant activity in the maximal electroshock (MES) screen test expressed as the number of animals protected the number of animals tested; MES at 300 mg/kg after 0.5 hrs; (0/1). Format: functional.
For series [12], the system named is Mus musculus. As to the kind of experiment: Anticonvulsant activity in the maximal electroshock (MES) screen test expressed as the number of animals protected the number of animals tested; MES at 300 mg/kg after 4 hrs; (1/1). It is filed as functional.
Series [13] deals with Mus musculus. As to the kind of experiment: Anticonvulsant activity in the subcutaneous metrazole (scMet) screen test expressed as the number of animals protected/ the number of animals tested; scMet at 300 mg/kg after 0.5 hrs; (0/1). It is filed as functional.
Series [14] relates to Mus musculus. As to the kind of experiment: Anticonvulsant activity in the maximal electroshock (MES) screen test expressed as the number of animals protected / the number of animals tested; MES at 100 mg/kg after 0.5 hrs; (2/3). Format: functional.
The test system of series [15] is Mus musculus. As to the kind of experiment: Anticonvulsant activity in the maximal electroshock (MES) screen test expressed as the number of animals protected / the number of animals tested; MES at 100 mg/kg after 4 hrs; (2/3). Format: functional.
Series [16] has as its system Mus musculus. In words: Anticonvulsant activity in the maximal electroshock (MES) screen test expressed as the number of animals protected / the number of animals tested; MES at 300 mg/kg after 0.5 hrs; (1/1). Format: functional.
Series [17] has as its system Mus musculus. As to the kind of experiment: Anticonvulsant activity in the subcutaneous metrazole (scMet) screen test expressed as the number of animals protected / the number of animals tested; scMet at 100 mg/kg after 0.5 hrs; (0/1). Format: functional.
The subject of series [18] is Mus musculus. In words: Anticonvulsant activity in the subcutaneous metrazole (scMet) screen test expressed as the number of animals protected / the number of animals tested; scMet at 100 mg/kg after 4 hrs; (0/1). Format: functional.
Series [19] concerns Mus musculus. As to the kind of experiment: Anticonvulsant activity in the subcutaneous metrazole (scMet) screen test expressed as the number of animals protected to the number of animals tested; scMet at 300 mg/kg; (0/1). It is filed as functional.
Series [20] relates to Mus musculus. As to the kind of experiment: Anticonvulsant activity in the subcutaneous metrazole (scMet) screen test expressed as the number of animals protected to the number of animals tested; scMet at 100 mg/kg after 0.5 hrs; (0/1). It is filed as functional.
In series [21] the test system is Mus musculus. In words: Anticonvulsant activity in the maximal electroshock (MES) screen test expressed as the number of animals protected to the number of animals tested; MES at 300 mg/kg after 4 hrs; (1/1). Format: functional.
The subject of series [22] is Mus musculus. In words: Anticonvulsant activity in the maximal electroshock (MES) screen test expressed as the number of animals protected to the number of animals tested; MES at 100 mg/kg after 0.5 hrs; (0/3). Format: functional.
In series [23] the test system is Mus musculus. In words: Anticonvulsant activity in the maximal electroshock (MES) screen test expressed as the number of animals protected to the number of animals tested; MES at 100 mg/kg after 4 hrs; (1/3). It is filed as functional.
Series [24] concerns Mus musculus. In words: Anticonvulsant activity in the maximal electroshock (MES) screen test expressed as the number of animals protected to the number of animals tested; MES at 300 mg/kg after 0.5 hrs; (0/1). It is filed as functional.

Each structure is given as a SMILES string.

With `CO/C(O)=C1\C(C)=NC(C)=C(C(=O)OCCO)C1c1cccc(Cl)c1Cl` (stereo unspecified), the Kp in series [1] came out at 236. In addition, in the series filed under Cavia porcellus, the IC50 (as a rule, the concentration needed to halve the response being measured) was 0.0304 µM. For the same molecule, the “No. of animals protected / no animals tested” value with Mus musculus [2] is listed as 1; in the series on Mus musculus [3], 0; with Mus musculus [4], 2.
In series [1], `CO/C(O)=C1\C(C)=NC(C)=C(C(=O)OCCOC(=O)C2=CN(C)C=CC2)C1c1cccc(Cl)c1Cl` (stereo unspecified) registered a Kp of 366. The IC50 in the series filed under Cavia porcellus is 0.031 µM. Besides, the “No. of animals protected / no animals tested” value with Mus musculus [5] amounted to 0; in the series with Mus musculus [6] it was 0; with Mus musculus [7], 0; with Mus musculus [8] it was 0; in the series on Mus musculus [9], 0; in the series on Mus musculus [10], 1. Also, the “No. of animals protected / no animals tested” value in the series on Mus musculus [11] is listed as 0; in the series on Mus musculus [12], 1.
For `CCOC(=O)C1=C(C)NC(C)=C(C(=O)OC)C1c1cccc(Cl)c1Cl` (stereo unspecified) [FELODIPINE], the Kp in [1] amounted to 442. Besides, the “No. of animals protected / no animals tested” value in the series with Mus musculus [13] worked out at 0; with Mus musculus [14], 2; with Mus musculus [15] it was 2; with Mus musculus [16], 1; in the series on Mus musculus [17], 0; in the series on Mus musculus [18], 0.
As for `COCCOC(=O)C1=C(C)NC(C)=C(C(=O)OC(C)C)C1c1cccc([N+](=O)[O-])c1` (stereo unspecified) [NIMODIPINE], the Kp in series [1] is 187. In addition, in the series listed under Cavia porcellus, the IC50 is 0.0149 µM. Further, the “No. of animals protected / no animals tested” value in the series with Mus musculus [19] is listed as 0 300mg kg-1; in the series on Mus musculus [20], 0 100mg kg-1; in the series with Mus musculus [3] it was 0 100mg kg-1; in the series with Mus musculus [21], 1 300mg kg-1; with Mus musculus [22], 0 100mg kg-1; in the series on Mus musculus [23] it was 1 100mg kg-1. Further, in the series with Mus musculus [24], the “No. of animals protected / no animals tested” value is given as 0 300mg kg-1.

The record behind these values is ChEMBL document CHEMBL1129028 (J Med Chem, 1996).
